# Experimental data from BigSolDB 2.1.
smiles,measurement,setting,value
CC(=O)S[C@@H]1CC2=CC(=O)CC[C@]2(C)[C@H]2CC[C@@]3(C)[C@@H](CC[C@@]34CCC(=O)O4)[C@H]12,solubility (mole fraction),"in ethanol, 278.75 K",0.0017
same,solubility (mole fraction),"in ethanol, 283.55 K",0.00197
same,solubility (mole fraction),"in ethanol, 288.45 K",0.00238
same,solubility (mole fraction),"in ethanol, 293.45 K",0.0031
same,solubility (mole fraction),"in ethanol, 298.35 K",0.00394
same,solubility (mole fraction),"in ethanol, 303.15 K",0.00491
same,solubility (mole fraction),"in ethanol, 308.25 K",0.00606
same,solubility (mole fraction),"in ethanol, 313.15 K",0.00771
same,solubility (mole fraction),"in ethanol, 317.95 K",0.00975
same,solubility (mole fraction),"in ethyl acetate, 278.85 K",0.0179
same,solubility (mole fraction),"in ethyl acetate, 283.65 K",0.0198
same,solubility (mole fraction),"in ethyl acetate, 288.55 K",0.0226
same,solubility (mole fraction),"in ethyl acetate, 293.45 K",0.0246
same,solubility (mole fraction),"in ethyl acetate, 298.3 K",0.0281
same,solubility (mole fraction),"in ethyl acetate, 303.15 K",0.0314
same,solubility (mole fraction),"in ethyl acetate, 308.1 K",0.0359
same,solubility (mole fraction),"in ethyl acetate, 312.95 K",0.0412
same,solubility (mole fraction),"in ethyl acetate, 317.75 K",0.0456
same,solubility (mole fraction),"in isopropanol, 278.45 K",0.000994
same,solubility (mole fraction),"in isopropanol, 283.55 K",0.00128
same,solubility (mole fraction),"in isopropanol, 288.4 K",0.00168
same,solubility (mole fraction),"in isopropanol, 293.25 K",0.00208
same,solubility (mole fraction),"in isopropanol, 298.2 K",0.00265
same,solubility (mole fraction),"in isopropanol, 303.05 K",0.00343
same,solubility (mole fraction),"in isopropanol, 307.95 K",0.00445
same,solubility (mole fraction),"in isopropanol, 312.9 K",0.00572
same,solubility (mole fraction),"in isopropanol, 317.55 K",0.00731
same,solubility (mole fraction),"in methanol, 278.85 K",0.000202
same,solubility (mole fraction),"in methanol, 283.65 K",0.000267
same,solubility (mole fraction),"in methanol, 288.55 K",0.000356
same,solubility (mole fraction),"in methanol, 293.45 K",0.00041
same,solubility (mole fraction),"in methanol, 298.3 K",0.000612
same,solubility (mole fraction),"in methanol, 303.15 K",0.000813
same,solubility (mole fraction),"in methanol, 308.1 K",0.00104
same,solubility (mole fraction),"in methanol, 312.95 K",0.00139
same,solubility (mole fraction),"in methanol, 317.75 K",0.00182
same,solubility (mole fraction),"in n-butanol, 278.95 K",0.00194
same,solubility (mole fraction),"in n-butanol, 283.65 K",0.00237
same,solubility (mole fraction),"in n-butanol, 288.55 K",0.00309
same,solubility (mole fraction),"in n-butanol, 293.45 K",0.00396
same,solubility (mole fraction),"in n-butanol, 298.25 K",0.00469
same,solubility (mole fraction),"in n-butanol, 303.05 K",0.00581
same,solubility (mole fraction),"in n-butanol, 308.15 K",0.00732
same,solubility (mole fraction),"in n-butanol, 312.95 K",0.00898
same,solubility (mole fraction),"in n-butanol, 317.65 K",0.011
same,solubility (mole fraction),"in n-propanol, 278.4 K",0.00228
same,solubility (mole fraction),"in n-propanol, 283.65 K",0.0026
same,solubility (mole fraction),"in n-propanol, 288.35 K",0.00326
same,solubility (mole fraction),"in n-propanol, 293.25 K",0.00395
same,solubility (mole fraction),"in n-propanol, 298.15 K",0.00488
same,solubility (mole fraction),"in n-propanol, 303.05 K",0.00606
same,solubility (mole fraction),"in n-propanol, 307.95 K",0.00756
same,solubility (mole fraction),"in n-propanol, 312.9 K",0.00957
same,solubility (mole fraction),"in n-propanol, 318.35 K",0.0121
